31 compounds from patent publication US20260184693A1, “INHIBITORS OF SOLUTE CARRIER FAMILY 6A MEMBER 19 (SLC6A19) AND METHODS OF USE THEREOF” (Maze Therapeutics, Inc., priority 2022, published 2026) can be followed below.

Structures are written as SMILES.

In this experiment the target is T1, human SLC6A19 (Homo sapiens, UniProt Q695T7).
T1 construct: expressed in transfected cells
T1 sequence (Q695T7 1-634): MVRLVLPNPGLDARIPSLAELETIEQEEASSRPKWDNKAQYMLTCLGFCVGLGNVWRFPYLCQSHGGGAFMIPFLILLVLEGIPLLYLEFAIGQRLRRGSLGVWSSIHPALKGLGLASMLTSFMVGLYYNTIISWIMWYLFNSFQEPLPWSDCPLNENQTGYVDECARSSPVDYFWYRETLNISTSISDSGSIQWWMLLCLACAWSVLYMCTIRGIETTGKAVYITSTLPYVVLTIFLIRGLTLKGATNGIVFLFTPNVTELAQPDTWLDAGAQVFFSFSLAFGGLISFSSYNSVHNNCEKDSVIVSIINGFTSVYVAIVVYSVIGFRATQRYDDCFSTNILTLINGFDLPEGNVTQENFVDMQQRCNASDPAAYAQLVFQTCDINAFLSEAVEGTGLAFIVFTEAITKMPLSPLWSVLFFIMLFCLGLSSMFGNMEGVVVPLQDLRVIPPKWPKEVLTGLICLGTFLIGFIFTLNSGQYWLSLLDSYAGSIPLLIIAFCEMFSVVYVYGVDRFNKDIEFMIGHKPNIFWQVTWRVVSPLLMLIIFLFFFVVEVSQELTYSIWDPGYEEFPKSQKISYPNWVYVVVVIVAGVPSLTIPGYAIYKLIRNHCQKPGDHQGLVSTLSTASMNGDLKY
T1 sequence (Q9HBJ8 15-222 partner): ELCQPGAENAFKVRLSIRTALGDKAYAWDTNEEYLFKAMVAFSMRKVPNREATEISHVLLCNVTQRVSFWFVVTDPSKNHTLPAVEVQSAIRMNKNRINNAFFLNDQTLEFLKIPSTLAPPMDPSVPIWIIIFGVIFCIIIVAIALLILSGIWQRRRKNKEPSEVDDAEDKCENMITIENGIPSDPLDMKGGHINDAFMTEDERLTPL
Kind of experiment: Example B2: 13C6,15N-isoleucine uptake, RapidFire mass spectrometry, in CHO cells with doxycycline-inducible expression of human SLC6A19 and TMEM27. The format is cell-based. The settings on record: read-out: SLC6A19_RapidFire Uptake Assay IC50. The procedure, abridged:
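CHO cells were induced with doxycycline to express human SLC6A19 with TMEM27, then pre-incubated 20 min at 37 °C with compounds (2-fold, 10-point, duplicate). Uptake of 13C6,15N-isoleucine (2 mM solution added) over a further 20 min was measured by RapidFire mass spectrometry, using 13C-leucine as internal standard.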
As for `CCN(C(=O)NCc1cc2ccc(OCc3ccon3)cc2[nH]1)[C@@H]1CCCN(C(C)=O)C1` [Compound 139, (R)-1-(1-acetylpiperidin-3-yl)-1-ethyl-3-((6-(isoxazol-3-ylmethoxy)-1H-indol-2-yl)methyl)urea], the IC50 stood at 517 nM.

As to `CC(=O)N1CCC[C@@H](N(C)C(=O)NCc2cc3cc(Cl)c(OCc4cncs4)cc3[nH]2)C1` [Compound 140, (R)-1-(1-acetylpiperidin-3-yl)-3-((5-chloro-6-(thiazol-5-ylmethoxy)-1H-indol-2-yl)methyl)-1-methylurea], the IC50 stood at 1240 nM.

Turning to `CC(=O)N1CCC[C@@H](N(C)C(=O)NCc2cc3ccc(OCc4ccon4)cc3[nH]2)C1` [Compound 141, (R)-1-(1-acetylpiperidin-3-yl)-3-((6-(isoxazol-3-ylmethoxy)-1H-indol-2-yl)methyl)-1-methylurea], the IC50 came to 670 nM.

As to `Cc1cc(COc2ccc3cc(CNC(=O)N(C)[C@@H]4CCCN(c5cccnn5)C4)[nH]c3c2)no1` [Compound 142, (R)-1-methyl-3-((6-((5-methylisoxazol-3-yl)methoxy)-1H-indol-2-yl)methyl)-1-(1-(pyridazin-3-yl)piperidin-3-yl)urea], the IC50 was determined as 1310 nM.

Regarding `CC(=O)N1CCC[C@@H](N(C)C(=O)NCc2cc3ccc(OCc4cc(C)on4)cc3[nH]2)C1` [Compound 143, (R)-1-(1-acetylpiperidin-3-yl)-1-methyl-3-((6-((5-methylisoxazol-3-yl)methoxy)-1H-indol-2-yl)methyl)urea], the IC50 turned out to be 1090 nM.

In the case of `Cc1cc(COc2cc3[nH]c(CNC(=O)N(C)[C@@H]4CCCN(c5cccnn5)C4)cc3cc2Cl)no1` [Compound 144, (R)-3-((5-chloro-6-((5-methylisoxazol-3-yl)methoxy)-1H-indol-2-yl)methyl)-1-methyl-1-(1-(pyridazin-3-yl)piperidin-3-yl)urea], the IC50 was found to be 284 nM.

As to `CN(C(=O)NCc1cc2ccccc2[nH]1)C1CCCN(c2cccnn2)C1` (stereo not shown) [Compound 145, 3-((1H-indol-2-yl)methyl)-1-methyl-1-(1-(pyridazin-3-yl)piperidin-3-yl)urea], the IC50 was 909 nM.

For the compound `CN(C(=O)NCc1cc2ccccc2[nH]1)[C@@H]1CCCN(c2cccnn2)C1` [Compound 146, (R)-3-((1H-indol-2-yl)methyl)-1-methyl-1-(1-(pyridazin-3-yl)piperidin-3-yl)urea], the IC50 came to 553 nM.

In the case of `CC(=O)N1CCC[C@@H](N(C)C(=O)NCc2cc3ccccc3[nH]2)C1` [Compound 148, (R)-3-((1H-indol-2-yl)methyl)-1-(1-acetylpiperidin-3-yl)-1-methylurea], the half-maximal inhibitory concentration (IC50) stood at 1080 nM.

Regarding `CN1CCC[C@@H](N(C)C(=O)NCc2cc3cc(Cl)ccc3[nH]2)C1` [Compound 149, (R)-3-((5-chloro-1H-indol-2-yl)methyl)-1-methyl-1-(1-methylpiperidin-3-yl)urea], the IC50 came out at 10100 nM.

As to `CN(C(=O)NCc1cc2ccccc2[nH]1)[C@@H]1CCCN(c2ccon2)C1` [Compound 150, (R)-3-((1H-indol-2-yl)methyl)-1-(1-(isoxazol-3-yl)piperidin-3-yl)-1-methylurea], the IC50 was found to be 91.9 nM.

Consider `CN(C(=O)NCc1cc2cc(Cl)ccc2[nH]1)[C@@H]1CCCN(c2ccon2)C1` [Compound 151, (R)-3-((5-chloro-1H-indol-2-yl)methyl)-1-(1-(isoxazol-3-yl)piperidin-3-yl)-1-methylurea], for which the IC50 worked out at 40.4 nM.

As for `CCc1cc2[nH]c(CNC(=O)N(C)[C@@H]3CCCN(C(C)=O)C3)cc2cc1Cl` [Compound 152, (R)-1-(1-acetylpiperidin-3-yl)-3-((5-chloro-6-ethyl-1H-indol-2-yl)methyl)-1-methylurea], the IC50 was found to be 171 nM.

For the compound `COc1cc2[nH]c(CNC(=O)N(C)[C@@H]3CCCN(C(C)=O)C3)cc2cc1Cl` [Compound 153, (R)-1-(1-acetylpiperidin-3-yl)-3-((5-chloro-6-methoxy-1H-indol-2-yl)methyl)-1-methylurea], the IC50 was 504 nM.

In the case of `CC(=O)N1CCC[C@@H](N(C)C(=O)NCc2cc3cc(Cl)c(Cl)cc3[nH]2)C1` [Compound 154, (R)-1-(1-acetylpiperidin-3-yl)-3-((5,6-dichloro-1H-indol-2-yl)methyl)-1-methylurea], the IC50 was 173 nM.

As for `CCOc1cc2[nH]c(CNC(=O)N(C)[C@@H]3CCCN(C(C)=O)C3)cc2cc1Cl` [Compound 155, (R)-1-(1-acetylpiperidin-3-yl)-3-((5-chloro-6-ethoxy-1H-indol-2-yl)methyl)-1-methylurea], the IC50 was determined as 537 nM.

On to `CC(=O)N1CCC[C@@H](N(C)C(=O)NCc2cc3cc(F)c(F)cc3[nH]2)C1` [Compound 156, (R)-1-(1-acetylpiperidin-3-yl)-3-((5,6-difluoro-1H-indol-2-yl)methyl)-1-methylurea], for which the IC50 was determined as 282 nM.

On to `CC(=O)N1CCC[C@@H](N(C)C(=O)NCc2cc3cc(C)c(Cl)cc3[nH]2)C1` [Compound 157, (R)-1-(1-acetylpiperidin-3-yl)-3-((6-chloro-5-methyl-1H-indol-2-yl)methyl)-1-methylurea], for which the IC50 came to 194 nM.

Take `COC(=O)N1CCC[C@@H](N(C)C(=O)NCc2cc3cc(Cl)ccc3[nH]2)C1` [Compound 158, methyl (R)-3-(3-((5-chloro-1H-indol-2-yl)methyl)-1-methylureido)piperidine-1-carboxylate]: the IC50 is 113 nM.

With `CC(=O)N1CCC[C@@H](N(C)C(=O)NCc2cc3cc(Cl)c(F)cc3[nH]2)C1` [Compound 159, (R)-1-(1-acetylpiperidin-3-yl)-3-((5-chloro-6-fluoro-1H-indol-2-yl)methyl)-1-methylurea], the IC50 turned out to be 179 nM.

With `CC(=O)N1CCC[C@@H](N(C)C(=O)NCc2cc3ccc(F)cc3[nH]2)C1` [Compound 160, (R)-1-(1-acetylpiperidin-3-yl)-3-((6-fluoro-1H-indol-2-yl)methyl)-1-methylurea], the IC50 is 708 nM.

Take `CC(=O)N1CCC[C@@H](N(C)C(=O)NCc2cc3cc(F)ccc3[nH]2)C1` [Compound 161, (R)-1-(1-acetylpiperidin-3-yl)-3-((5-fluoro-1H-indol-2-yl)methyl)-1-methylurea]: the IC50 came out at 493 nM.

As to `COc1ccc2cc(CNC(=O)N(C)[C@@H]3CCCN(C(C)=O)C3)[nH]c2c1` [Compound 162, (R)-1-(1-acetylpiperidin-3-yl)-3-((6-methoxy-1H-indol-2-yl)methyl)-1-methylurea], the IC50 turned out to be 6780 nM.

For the compound `CC(=O)N1CCC[C@@H](N(C)C(=O)NCc2cc3cc(F)c(Cl)cc3[nH]2)C1` [Compound 164, (R)-1-(1-acetylpiperidin-3-yl)-3-((6-chloro-5-fluoro-1H-indol-2-yl)methyl)-1-methylurea], the IC50 was 351 nM.

As for `CC(=O)N1CCC[C@@H](N(C)C(=O)NCc2cc3[nH]ccc3cc2Cl)C1` [Compound 165, (R)-1-(1-acetylpiperidin-3-yl)-3-((5-chloro-1H-indol-6-yl)methyl)-1-methylurea], the IC50 was 8030 nM.

For the compound `CCN(C(=O)NCc1cc2cc(F)ccc2[nH]1)[C@@H]1CCCN(C(C)=O)C1` [Compound 166, (R)-1-(1-acetylpiperidin-3-yl)-1-ethyl-3-((5-fluoro-1H-indol-2-yl)methyl)urea], the IC50 turned out to be 168 nM.

For the compound `CCN(C(=O)NCc1cc2cc(Cl)c(OC)cc2[nH]1)[C@@H]1CCCN(C(C)=O)C1` [Compound 167, (R)-1-(1-acetylpiperidin-3-yl)-3-((5-chloro-6-methoxy-1H-indol-2-yl)methyl)-1-ethylurea], the IC50 was 103 nM.

Consider `CC(=O)N1CCC[C@@H](N(C)C(=O)NCc2cc3[nH]cc(C)c3cc2F)C1` [Compound 168, (R)-1-(1-acetylpiperidin-3-yl)-3-((5-fluoro-3-methyl-1H-indol-6-yl)methyl)-1-methylurea], for which the IC50 turned out to be 651 nM.

For `CCN(C(=O)NCc1cc2cc(F)c(F)cc2[nH]1)[C@@H]1CCCN(C(C)=O)C1` [Compound 169, (R)-1-(1-acetylpiperidin-3-yl)-3-((5,6-difluoro-1H-indol-2-yl)methyl)-1-ethylurea], the IC50 stood at 97.8 nM.

For the compound `CCN(C(=O)NCc1cc2cc(Cl)c(F)cc2[nH]1)[C@@H]1CCCN(C(C)=O)C1` [Compound 170, (R)-1-(1-acetylpiperidin-3-yl)-3-((5-chloro-6-fluoro-1H-indol-2-yl)methyl)-1-ethylurea], the IC50 came to 45.1 nM.

For `CC(=O)N1CCC[C@@H](N(C)C(=O)NCc2cc3ccc(C#N)cc3[nH]2)C1` [Compound 172, (R)-1-(1-acetylpiperidin-3-yl)-3-((6-cyano-1H-indol-2-yl)methyl)-1-methylurea], the IC50 came to 10900 nM.
